The results in this text go back to patent US10590106B2, “Certain chemical entities, compositions, and methods” (NeuPharma, Inc., priority 2012, dated 2020).

The test system of one assay is A375 cells. The assay can be described thus: Inhibition of cancer cell growth, MTT or MTS assay, A375. Format: cell-based. Particulars: Homo sapiens, A-375; 72 h incubation. The procedure, abridged: (§1)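 Cells in RPMI 1640 with 10% FBS were seeded at ~2000 (A375) or 4000 (A549, Colo205) per well, grown 24 h, then exposed to compound 72 h at 1% final DMSO. Read-out by MTT (570 nm) or MTS (490 nm). IC50 from concentration vs percent inhibition, triplicates.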

The target in another assay is BRAF V600E (Homo sapiens (Human), UniProt P15056, V600E). The assay can be described thus: Inhibitory activity against kinase BRAF V600E, Z'-LYTE method (Invitrogen). The class given is biochemical. Conditions: for inhibition at 1 µM: 1 μM compound, read-out: Inhibition (% inhibition at 1 μM) against BRAF V600E. The procedure, abridged: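 FRET-based Z′-LYTE peptide-phosphorylation assay in 50 mM HEPES pH 7.5, 0.01% BRIJ-35, 10 mM MgCl2, 1 mM EGTA; kinase reaction 60 min at room temperature, then 60 min development before fluorescence read. IC50 from concentration vs % inhibition; single-point % inhibition tested at 1 μM.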

A further assay concerns the target BRAF (Homo sapiens (Human), UniProt P15056). In words: Inhibitory activity against kinase BRAF, Z'-LYTE method (Invitrogen). Format: biochemical. Particulars: 1 μM compound. As to the method:
Inhibitory activities Inhibitory activities of compounds against BRAF, and BRAF V600E were measured by Invitrogen using Z′-LYTE® Method as briefly described in the following. 4× Test compounds are dissolved in 1% DMSO. […] ATP solutions are diluted to a 4×ATP working concentration in Kinase Buffer (50 mM HEPES pH 7.5, 0.01% BRIJ-35, 10 mM MgCl2, 1 mM EGTA). Reaction started by 30-second shaking of mixture consisting of 2.5 μL 4× test compound, […] and 2.5 μL 4×ATP Solution on Bar-coded Corning, low volume NBS, black 384-well plate (Corning Cat. #3676). Then the mixture was incubated for 60-minute at room temperature for the kinase reaction, followed by addition of 5 μL of a 1:1024 dilution of development reagent A and 30-second plate shake. The mixture was then incubated for another 60-minute at room temperature for development reaction. Fluorescence was read by plate reader. IC50 was calculated by plotting the concentration of compound vs the percentage of inhibition in treated wells using GraphPad Prism 5.
Table 2 and 3 show % inhibition at 1 μM of several compounds of the invention against BRAF and BRAF V600E, respectively, using Z′-LYTE® method.

A further assay concerns A549 cells. In words: Inhibition of cancer cell growth, MTT or MTS assay, A549. The class given is cell-based. Conditions: Homo sapiens, 72 h incubation. The procedure, abridged: as §1
For orientation: Tetrazolium dyes change colour on reduction, which living cells bring about.

Another assay has as its target KDR (VEGFR2) (Homo sapiens (Human), UniProt P35968). In words: Inhibitory activity against kinase KDR, Z'-LYTE method (Invitrogen). Conditions: for inhibition at 1 µM: 1 μM compound, read-out: Inhibition (% inhibition at 1 μM) against KDR. Format: biochemical. The procedure, abridged:
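Human KDR (VEGFR2) kinase inhibition was measured with Invitrogen's Z′-LYTE® method. A 2× mixture of KDR and Tyr 01 peptide is made in 50 mM HEPES pH 7.5, 0.01% BRIJ-35, 10 mM MgCl2, 1 mM EGTA. Each 10 μL reaction holds 0.5-11.7 ng enzyme and 2 μM Tyr 01. It incubates for 1 hour, then 5 μL of Development Reagent B diluted 1:256 is added.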

Sequence of BRAF (P15056 whole entry): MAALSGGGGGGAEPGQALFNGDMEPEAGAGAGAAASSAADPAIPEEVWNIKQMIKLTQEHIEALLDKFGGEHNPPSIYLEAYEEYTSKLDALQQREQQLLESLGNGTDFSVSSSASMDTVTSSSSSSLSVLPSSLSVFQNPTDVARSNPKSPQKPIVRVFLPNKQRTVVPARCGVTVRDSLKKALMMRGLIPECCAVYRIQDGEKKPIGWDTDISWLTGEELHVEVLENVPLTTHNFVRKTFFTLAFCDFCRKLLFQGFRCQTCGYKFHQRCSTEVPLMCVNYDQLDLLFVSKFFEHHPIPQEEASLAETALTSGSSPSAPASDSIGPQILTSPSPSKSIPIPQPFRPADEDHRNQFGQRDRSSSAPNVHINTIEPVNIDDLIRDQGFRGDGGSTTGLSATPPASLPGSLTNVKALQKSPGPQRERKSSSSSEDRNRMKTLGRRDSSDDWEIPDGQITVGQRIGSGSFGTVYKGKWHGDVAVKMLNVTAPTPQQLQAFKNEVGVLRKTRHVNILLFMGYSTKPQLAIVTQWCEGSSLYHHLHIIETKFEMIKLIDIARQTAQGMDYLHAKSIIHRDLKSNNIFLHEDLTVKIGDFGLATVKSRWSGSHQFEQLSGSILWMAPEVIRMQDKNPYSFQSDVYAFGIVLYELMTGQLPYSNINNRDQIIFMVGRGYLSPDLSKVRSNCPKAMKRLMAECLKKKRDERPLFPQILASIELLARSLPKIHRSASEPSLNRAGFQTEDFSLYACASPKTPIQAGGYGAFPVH
Sequence of KDR (VEGFR2) (P35968 20-1356): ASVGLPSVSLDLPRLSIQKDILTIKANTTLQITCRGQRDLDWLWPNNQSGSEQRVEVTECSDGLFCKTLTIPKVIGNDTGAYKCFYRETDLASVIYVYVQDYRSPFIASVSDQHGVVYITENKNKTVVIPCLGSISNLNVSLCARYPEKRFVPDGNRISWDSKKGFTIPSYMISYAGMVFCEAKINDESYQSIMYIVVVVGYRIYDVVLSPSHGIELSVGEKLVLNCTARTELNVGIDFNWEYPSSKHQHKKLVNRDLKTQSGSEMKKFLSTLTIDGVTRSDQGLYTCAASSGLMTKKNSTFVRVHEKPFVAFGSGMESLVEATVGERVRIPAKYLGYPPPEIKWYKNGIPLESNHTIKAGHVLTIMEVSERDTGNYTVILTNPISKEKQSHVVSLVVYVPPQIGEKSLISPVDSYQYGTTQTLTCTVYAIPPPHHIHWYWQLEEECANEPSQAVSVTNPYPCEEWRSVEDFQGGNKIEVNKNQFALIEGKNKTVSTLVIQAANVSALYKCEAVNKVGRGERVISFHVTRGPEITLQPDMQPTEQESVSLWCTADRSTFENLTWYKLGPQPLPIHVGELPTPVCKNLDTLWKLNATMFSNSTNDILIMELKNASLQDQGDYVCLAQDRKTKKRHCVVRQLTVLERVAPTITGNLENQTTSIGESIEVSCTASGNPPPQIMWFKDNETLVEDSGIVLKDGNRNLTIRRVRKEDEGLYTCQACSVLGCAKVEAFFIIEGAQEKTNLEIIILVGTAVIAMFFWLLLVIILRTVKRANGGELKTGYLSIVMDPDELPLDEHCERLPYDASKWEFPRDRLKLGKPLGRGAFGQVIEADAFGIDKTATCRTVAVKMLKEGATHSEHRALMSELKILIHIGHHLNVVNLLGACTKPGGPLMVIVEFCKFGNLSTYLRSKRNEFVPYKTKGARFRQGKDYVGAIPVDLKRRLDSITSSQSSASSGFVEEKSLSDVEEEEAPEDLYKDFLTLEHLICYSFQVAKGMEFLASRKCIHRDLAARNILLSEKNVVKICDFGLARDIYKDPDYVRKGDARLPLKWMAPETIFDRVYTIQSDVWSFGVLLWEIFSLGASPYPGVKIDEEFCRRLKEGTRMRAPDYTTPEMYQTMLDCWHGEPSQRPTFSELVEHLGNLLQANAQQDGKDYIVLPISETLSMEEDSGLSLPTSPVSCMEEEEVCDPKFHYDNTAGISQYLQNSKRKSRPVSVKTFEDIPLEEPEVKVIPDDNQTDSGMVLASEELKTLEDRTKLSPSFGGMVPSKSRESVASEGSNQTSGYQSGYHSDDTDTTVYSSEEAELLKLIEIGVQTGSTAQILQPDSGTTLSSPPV
Sequence of BRAF V600E (P15056 whole entry V600E): as the sequence (P15056 whole entry) above, with V600E counted along it

Turning to `O=C(Nc1ccc(Oc2ccc3nccnc3c2)cc1)Nc1cccc(F)c1` [Compound C074, 1-(3-fluorophenyl)-3-(4-(quinoxalin-6-yloxy)phenyl)urea], the IC50 (as a rule, the concentration that gives 50% inhibition) in the assay on A375 cells was in the range of 1 to 5 µM; in the assay with A549 cells it was 2 to 5 µM. The inhibition – broadly, how much of the control response was suppressed – at 1 µM on BRAF V600E is 70 to 89%; against BRAF, under 70%.

Take `O=C(Nc1ccc(F)c(Oc2ccc3ncc(N4CCNCC4)nc3c2)c1)Nc1ccc(Cl)c(C(F)(F)F)c1` [Compound C066, 1-(4-chloro-3-(trifluoromethyl)phenyl)-3-(4-fluoro-3-((3-(piperazin-1-yl)quinoxalin-6-yl)oxy)phenyl)urea]: the IC50 is 1 to 5 µM with A375 cells and under 2 µM in the assay on A549 cells. Also, the inhibition at 1 µM at BRAF V600E was over 89%; against BRAF it was under 70%; at KDR (VEGFR2), over 89%.

Regarding `O=C(Nc1ccc(Cl)cc1)Nc1ccc(Oc2ccc3nccnc3c2)cc1F` [Compound C096, 1-(4-chlorophenyl)-3-(2-fluoro-4-(quinoxalin-6-yloxy)phenyl)urea], in the assay with A375 cells, the IC50 is over 5 µM. For the same compound, the inhibition at 1 µM at BRAF V600E is over 89%; on BRAF it was under 70%.

In the case of `O=C(Nc1cc(F)cc(Oc2ccc3ncc(N4CCOCC4)nc3c2)c1)c1cccc(C(F)(F)F)c1` [Compound C028, N-(3-fluoro-5-((3-morpholinoquinoxalin-6-yl)oxy)phenyl)-3-(trifluoromethyl)benzamide], the IC50 was 1 to 5 µM in the assay on A375 cells and over 5 µM in the assay with A549 cells. For the same compound, the inhibition at 1 µM at BRAF V600E was over 89%; against BRAF, under 70%; at KDR (VEGFR2), 70 to 89%.

Regarding `O=C(Nc1ccc(Cl)cc1)Nc1ccc(Oc2ccc3ncc(N4CCNCC4)nc3c2)cc1` [Compound C092, 1-(4-chlorophenyl)-3-(4-((3-(piperazin-1-yl)quinoxalin-6-yl)oxy)phenyl)urea], the IC50 was over 5 µM with A375 cells and 2 to 5 µM in the assay with A549 cells. In addition, the inhibition at 1 µM at BRAF V600E was over 89%; against BRAF, over 89%; at KDR (VEGFR2), 70 to 89%.

For `O=C(Nc1ccc(Oc2ccc3nccnc3c2)cc1)Nc1cccc(C(F)(F)F)c1` [Compound C075, 1-(4-(quinoxalin-6-yloxy)phenyl)-3-(3-(trifluoromethyl)phenyl)urea], the 50% inhibitory concentration (IC50) in the assay with A375 cells was 1 to 5 µM; on BRAF V600E, over 0.1 µM; in the assay on A549 cells, 2 to 5 µM; against KDR (VEGFR2), over 0.1 µM. The inhibition at 1 µM at BRAF V600E is over 89%; on BRAF, under 70%; on KDR (VEGFR2), 70 to 89%.

Consider `O=C(Nc1cc(F)cc(Oc2ccc3nccnc3c2)c1)Nc1cccc(C(F)(F)F)c1` [Compound C021, 1-(3-fluoro-5-(quinoxalin-6-yloxy)phenyl)-3-(3-(trifluoromethyl)phenyl)urea], for which the concentration for half-maximal inhibition (IC50) in the assay on A375 cells is 1 to 5 µM; with A549 cells, under 2 µM. Moreover, the results for the inhibition at 1 µM at BRAF V600E, at BRAF and on KDR (VEGFR2) were over 89%, under 70% and 70 to 89%, respectively.

For `O=C(Nc1cccc(Oc2ccc3nccnc3c2)c1)c1cccc(C(F)(F)F)c1` [Compound C005, N-(3-(quinoxalin-6-yloxy)phenyl)-3-(trifluoromethyl)benzamide], the IC50 in the assay with A375 cells was over 5 µM; against BRAF V600E, under 0.1 µM; in the assay with A549 cells it was over 5 µM; against KDR (VEGFR2) it was over 0.1 µM. For the same compound, the inhibition at 1 µM on BRAF V600E, on BRAF and on KDR (VEGFR2) was 70 to 89% in each case.

As for `O=C(Nc1ccc(F)cc1)Nc1ccc(Oc2ccc3ncc(N4CCNCC4)nc3c2)cc1` [Compound C090, 1-(4-fluorophenyl)-3-(4-((3-(piperazin-1-yl)quinoxalin-6-yl)oxy)phenyl)urea], the IC50 in the assay with A375 cells is 1 to 5 µM; in the assay on A549 cells, under 2 µM. The inhibition at 1 µM on BRAF V600E was over 89%; at BRAF, 70 to 89%; at KDR (VEGFR2), over 89%.

`O=C(Nc1cccc(F)c1)Nc1cccc(Oc2ccc3nccnc3c2)c1` [Compound C002, 1-(3-fluorophenyl)-3-(3-(quinoxalin-6-yloxy)phenyl)urea] gave an IC50 in the assay with A375 cells of over 5 µM. For the same compound, the inhibition at 1 µM at BRAF V600E, on BRAF and on KDR (VEGFR2) was 70 to 89% in each case.

`O=C(Nc1ccc(F)c(F)c1)Nc1ccc(F)c(Oc2ccc3ncc(N4CCOCC4)nc3c2)c1` [Compound C052, 1-(3,4-difluorophenyl)-3-(4-fluoro-3-((3-morpholinoquinoxalin-6-yl)oxy)phenyl)urea] gave an IC50 with A375 cells of 1 to 5 µM. In addition, the inhibition at 1 µM at BRAF V600E was over 89%; against BRAF, 70 to 89%; at KDR (VEGFR2), 70 to 89%.

Regarding `O=C(Nc1ccc(F)cc1)Nc1ccc(Oc2ccc3nccnc3c2)cc1F` [Compound C094, 1-(2-fluoro-4-(quinoxalin-6-yloxy)phenyl)-3-(4-fluorophenyl)urea], the 50% inhibitory concentration (IC50) with A375 cells is over 5 µM. The inhibition at 1 µM at BRAF V600E is over 89%; against BRAF it was 70 to 89%.

Take `O=C(Nc1cccc(Oc2ccc3ncc(N4CCOCC4)nc3c2)c1)Nc1ccc(F)c(F)c1` [Compound C044, 1-(3,4-difluorophenyl)-3-(3-((3-morpholinoquinoxalin-6-yl)oxy)phenyl)urea]: the values for the inhibition at 1 µM on BRAF V600E, on BRAF and at KDR (VEGFR2) were over 89%, 70 to 89% and 70 to 89%, respectively. Further, in the assay with A549 cells, the half-inhibitory concentration (IC50) was over 5 µM.

Regarding `O=C(Nc1cccc(Oc2ccc3ncc(N4CCNCC4)nc3c2)c1)Nc1ccc(Cl)c(C(F)(F)F)c1` [Compound C041, 1-(4-chloro-3-(trifluoromethyl)phenyl)-3-(3-((3-(piperazin-1-yl)quinoxalin-6-yl)oxy)phenyl)urea], the inhibition at 1 µM on BRAF V600E, against BRAF and at KDR (VEGFR2) was over 89% each time. This compound also gave an IC50 in the assay on A549 cells of under 2 µM.

Regarding `O=C(Nc1ccc(Oc2ccc3ncc(N4CCOCC4)nc3c2)cc1)Nc1cccc(Cl)c1` [Compound C081, 1-(3-chlorophenyl)-3-(4-((3-morpholinoquinoxalin-6-yl)oxy)phenyl)urea], the inhibition at 1 µM is over 89% at BRAF V600E, under 70% against BRAF and over 89% at KDR (VEGFR2). Also, in the assay with A549 cells, the IC50 is over 5 µM.

As to `O=C(Nc1ccc(Cl)cc1)Nc1ccc(F)c(Oc2ccc3ncc(N4CCNCC4)nc3c2)c1` [Compound C064, 1-(4-chlorophenyl)-3-(4-fluoro-3-((3-(piperazin-1-yl)quinoxalin-6-yl)oxy)phenyl)urea], the inhibition at 1 µM on BRAF V600E, at BRAF and at KDR (VEGFR2) was over 89% in each case. In the assay with A549 cells, this compound had a half-inhibitory concentration (IC50) of 2 to 5 µM.

As to `O=C(Nc1ccc(F)c(Cl)c1)Nc1ccc(F)c(Oc2ccc3ncc(N4CCNCC4)nc3c2)c1` [Compound C067, 1-(3-chloro-4-fluorophenyl)-3-(4-fluoro-3-((3-(piperazin-1-yl)quinoxalin-6-yl)oxy)phenyl)urea], the inhibition at 1 µM at BRAF V600E, against BRAF and on KDR (VEGFR2) was over 89% throughout. The same compound registered an IC50 in the assay with A549 cells of under 2 µM.

Consider `O=C(Nc1ccc(F)cc1)Nc1ccc(F)c(Oc2ccc3ncc(N4CCNCC4)nc3c2)c1` [Compound C060, 1-(4-fluoro-3-((3-(piperazin-1-yl)quinoxalin-6-yl)oxy)phenyl)-3-(4-fluorophenyl)urea], for which the inhibition at 1 µM on BRAF V600E, against BRAF and on KDR (VEGFR2) was over 89% throughout. The IC50 in the assay with A549 cells was 2 to 5 µM.

Consider `O=C(Nc1cccc(Oc2ccc3ncc(N4CCNCC4)nc3c2)c1)Nc1cccc(C(F)(F)F)c1` [Compound C040, 1-(3-((3-(piperazin-1-yl)quinoxalin-6-yl)oxy)phenyl)-3-(3-(trifluoromethyl)phenyl)urea], for which the inhibition at 1 µM at BRAF V600E, at BRAF and on KDR (VEGFR2) was over 89% throughout. In the assay on A549 cells, this compound came in with a half-maximal inhibitory concentration (IC50) of 2 to 5 µM.
